The values that follow come from US20130035232A1, “INDUCTION AND STABILIZATION OF ENZYMATIC ACTIVITY IN MICROORGANISMS” (GEORGIA STATE UNIVERSITY RESEARCH FOUNDATION, INC., priority 2010, published 2013).

In assay [1] the test system is amidase. The assay is described as follows: Amidase production on supplemented medium. Format: cell-based. The conditions noted are these: YEMEA, urea, cobalt, supplement 3.8 mM. As for the experimental part:
The induction of nitrile hydratase production and amidase production in various nitrile hydratase producing microorganisms was evaluated. All strains were grown on YEMEA medium containing 7.5 g/L of urea and 10 ppm cobalt (provided as cobalt chloride) supplemented with asparagine (ASN), glutamine (GLN), or both asparagine and glutamine. The asparagine and glutamine were added at a concentration of 3.8 mM. As a comparative, enzyme production with no supplementation was also tested. Growth temperature was in the range of 26° C. to 30° C.

Assay [2] relates to asparaginase I. Kind of assay: Effect of inducer and media composition on asparaginase I production. Type of assay: cell-based, Rhodococcus sp. DAP 96253. The conditions noted are these: Rhodococcus sp. DAP 96253, inducer 1000 ppm. Here is the method: Testing was performed to evaluate the effect on asparaginase I activity based upon the inducer used. In particular, testing was performed using asparagine, glutamine, succinonitrile, and isovaleronitrile as inducers (all added at 1000 ppm each).

`NC(=O)C[C@H](N)C(=O)O` [Asparagine, asparagine]: the “Amidase Level Based on Growth Medium Supplementation” value in assay [1] (Brevibacterium ketoglutaricum ATCC 21533, 30 °C) was 0 Units/mg cdw; in assay [1] (Pseudomonas chloroaphis ATCC 13985, 26 °C), 14 Units/mg cdw; in assay [1] (Pseudomonas chloroaphis ATCC 43051, 30 °C), 0 Units/mg cdw; in assay [1] (Rhodococcus erythropolis ATCC 47072, 26 °C), 9 Units/mg cdw; in assay [1] (Rhodococcus rhodochrous DAP 96622 ATCC 55898, 26 °C), 10 Units/mg cdw; in assay [1] (Rhodococcus sp. DAP 96253 ATCC 55899, 30 °C), 13 Units/mg cdw. Further, the “Asparaginase I levels, YEMEA - Glucose With Cobalt” value in assay [2] (YEMEA - Glucose, with cobalt) was 6.5 units/mg cell dry weight. For the same molecule, in assay [2] (YEMEA - Glucose, without cobalt), the “Asparaginase I levels, YEMEA - Glucose Without Cobalt” value came to 5.3 units/mg cell dry weight. Also, in assay [2] (YEMEA - Maltose, with cobalt), the “Asparaginase I levels, YEMEA - Maltose With Cobalt” value stood at 24.6 units/mg cell dry weight. In addition, the “Asparaginase I levels, YEMEA - Maltose Without Cobalt” value in assay [2] (YEMEA - Maltose, without cobalt) was 8.7 units/mg cell dry weight.
